The target of the test is T1, Recombinant human EP300 containing the bromodomain (EP300-BD (1040-1161)) (Homo sapiens, UniProt Q09472).
T1 construct: Recombinant human EP300 bromodomain (EP300-BD (1040-1161)); made in house; host or cells: E. coli BL21-CodonPlus (DE3), modified pET vector
T1 sequence (Q09472 1040-1161): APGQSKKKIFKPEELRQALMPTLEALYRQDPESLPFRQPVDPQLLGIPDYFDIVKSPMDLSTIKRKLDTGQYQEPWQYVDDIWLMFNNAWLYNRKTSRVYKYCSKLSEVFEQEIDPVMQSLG
Kind of test: EP300 Alphascreen binding assay. In a few lines:
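Displacement of a biotinylated acetyl-K56 histone H3 peptide from the N-His bromodomain construct (1040-1161) measured by AlphaScreen proximity, beads at 7.5 μg/ml final, read 60 min after addition. Protein, peptide and compound first incubated 1 h at room temperature, pH 7.5 HEPES buffer; IC50 by four-parameter logistic fit.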
Background: Bead proximity is the source of the signal in Alpha formats.

pIC50: −log10 of the molar value.

This passage reports IC50 results from patent publication US11446287B2, “Compounds and methods for EP300 or CBP modulation and indications therefor” (Opna Immuno-Oncology SA, priority 2019, dated 2022).

As usually defined, the pIC50 is the negative decadic logarithm of the IC50, by convention in mol/L. With `Cc1noc(C)c1-c1cnc2c(c1)c(-c1ccc(C(=O)O)cc1)cn2[C@@H](C)c1ccccn1` [P-0001, (S)-4-(5-(3,5-dimethylisoxazol-4-yl)-1-(1-(pyridin-2-yl)ethyl)-1H-pyrrolo[2,3-b]pyridin-3-yl)benzoic acid], the negative logarithm of the IC50 (pIC50) was 6.00 to 10.00.
For `Cc1noc(C)c1-c1cnc2c(c1)c(-c1ccc(C(=O)O)cc1)cn2C(c1ccccn1)C1CCCC1` (stereo not drawn) [P-0002, 4-(1-(cyclopentyl(pyridin-2-yl)methyl)-5-(3,5-dimethylisoxazol-4-yl)-1H-pyrrolo[2,3-b]pyridin-3-yl)benzoic acid], the pIC50 was 6.00 to 10.00.
As to `Cc1noc(C)c1-c1cnc2c(c1)c(-c1ccccc1)cn2C(c1ccccn1)C1CCCC1` (stereo not drawn) [P-0003, 4-(1-(cyclopentyl(pyridin-2-yl)methyl)-3-phenyl-1H-pyrrolo[2,3-b]pyridin-5-yl)-3,5-dimethylisoxazole], the pIC50 was 3.00 to 5.10.
In the case of `Cc1noc(C)c1-c1cnc2c(c1)c(-c1ccc(C(=O)O)cc1)cn2C(c1ccccn1)C1CCCCC1` (stereo not drawn) [P-0004, 4-(1-(cyclohexyl(pyridin-2-yl)methyl)-5-(3,5-dimethylisoxazol-4-yl)-1H-pyrrolo[2,3-b]pyridin-3-yl)benzoic acid], the pIC50 was 6.00 to 10.00.
The figure for `COC(=O)c1ccc(-c2cn(S(=O)(=O)c3ccc(C)cc3)c3ncc(-c4c(C)noc4C)cc23)cc1` [P-0005, methyl 4-(5-(3,5-dimethylisoxazol-4-yl)-1-tosyl-1H-pyrrolo[2,3-b]pyridin-3-yl)benzoate] is 3.00 to 5.10; for `Cc1noc(C)c1-c1cnc2c(c1)c(-c1ccnc(C(=O)O)c1)cn2S(=O)(=O)c1ccccc1` [P-0055, 4-(5-(3,5-dimethylisoxazol-4-yl)-1-(phenylsulfonyl)-1H-pyrrolo[2,3-b]pyridin-3-yl)picolinic acid] it is 6.00 to 10.00.
For `COc1cccc(Cn2cc(-c3cccc(C(=O)O)c3)c3cc(-c4c(C)noc4C)cnc32)c1` [P-0056, 3-(5-(3,5-dimethylisoxazol-4-yl)-1-(3-methoxybenzyl)-1H-pyrrolo[2,3-]pyridin-3-yl)benzoic acid] the value was 6.00 to 10.00; for `COc1cccc(Cn2cc(-c3ccnc(C(=O)O)c3)c3cc(-c4c(C)noc4C)cnc32)c1` [P-0057, 4-(5-(3,5-dimethylisoxazol-4-yl)-1-(3-methoxybenzyl)-1H-pyrrolo[2,3-b]pyridin-3-yl)picolinic acid], 6.00 to 10.00; for `Cc1noc(C)c1-c1cnc2c(c1)c(-c1cccc(C(=O)O)c1)cn2C(C1CC1)C1CC1` [P-0058, 3-(1-(dicyclopropylmethyl)-5-(3,5-dimethylisoxazol-4-yl)-1H-pyrrolo[2,3-b]pyridin-3-yl)benzoic acid], 6.00 to 10.00.
Regarding `Cc1noc(C)c1-c1cnc2c(c1)c(-c1cccc(C(=O)O)c1)cn2Cc1cccc(OC(F)(F)F)c1` [P-0059, 3-(5-(3,5-dimethylisoxazol-4-yl)-1-(3-(trifluoromethoxy)benzyl)-1H-pyrrolo[2,3-b]pyridin-3-yl)benzoic acid], the negative logarithm of the IC50 (pIC50) was 6.00 to 10.00.
The figure for `Cc1noc(C)c1-c1cnc2c(c1)c(-c1cccc(C(=O)O)c1)cn2Cc1cccc(F)c1` [P-0060, 3-(5-(3,5-dimethylisoxazol-4-yl)-1-(3-fluorobenzyl)-1H-pyrrolo[2,3-b]pyridin-3-yl)benzoic acid] is 6.00 to 10.00; for `Cc1noc(C)c1-c1cnc2c(c1)c(-c1cccc(C(=O)O)c1)cn2Cc1cccc(Cl)c1` [P-0061, 3-(1-(3-chlorobenzyl)-5-(3,5-dimethylisoxazol-4-yl)-1H-pyrrolo[2,3-b]pyridin-3-yl)benzoic acid] it is 6.00 to 10.00; for `Cc1cccc(Cn2cc(-c3cccc(C(=O)O)c3)c3cc(-c4c(C)noc4C)cnc32)c1` [P-0062, 3-(5-(3,5-dimethylisoxazol-4-yl)-1-(3-methylbenzyl)-1H-pyrrolo[2,3-b]pyridin-3-yl)benzoic acid] it is 6.00 to 10.00.
In the case of `Cc1noc(C)c1-c1cnc2c(c1)c(-c1cccc(C(=O)O)c1)cn2Cc1cccc(C(F)(F)F)c1` [P-0063, 3-(5-(3,5-dimethylisoxazol-4-yl)-1-(3-(trifluoromethyl)benzyl)-1H-pyrrolo[2,3-b]pyridin-3-yl)benzoic acid], the pIC50 is 6.00 to 10.00.
In the case of `Cc1noc(C)c1-c1cnc2c(CC3CCC3)cn(-c3ccc(C(=O)O)cc3OC(F)F)c2c1` [P-0064, 4-(3-(cyclobutylmethyl)-6-(3,5-dimethylisoxazol-4-yl)-1H-pyrrolo[3,2-b]pyridin-1-yl)-3-(difluoromethoxy)benzoic acid], the pIC50 was 6.00 to 10.00.
With `Cc1noc(C)c1-c1cnc2c(CC3CC3)cn(-c3ccnc(C(=O)O)c3)c2c1` [P-0065, 4-(3-(cyclopropylmethyl)-6-(3,5-dimethylisoxazol-4-yl)-1H-pyrrolo[3,2-b]pyridin-1-yl)picolinic acid], the negative logarithm of the IC50 (pIC50) is 6.00 to 10.00.
The figure for `Cc1noc(C)c1-c1cnc2c(CC3CCC3)cn(-c3ccc(C(=O)O)cc3OC(F)(F)F)c2c1` [P-0066, 4-(3-(cyclobutylmethyl)-6-(3,5-dimethylisoxazol-4-yl)-1H-pyrrolo[3,2-b]pyridin-1-yl)-3-(trifluoromethoxy)benzoic acid] is 6.00 to 10.00; for `COc1cc(C(=O)O)cc(OC)c1-n1cc(CC2CCC2)c2ncc(-c3c(C)noc3C)cc21` [P-0067, 4-(3-(cyclobutylmethyl)-6-(3,5-dimethylisoxazol-4-yl)-1H-pyrrolo[3,2-b]pyridin-1-yl)-3,5-dimethoxybenzoic acid] it is 6.00 to 10.00; for `Cc1noc(C)c1-c1cnc2c(CC3CCC3)cn(-c3ccc(S(C)(=O)=O)c(F)c3)c2c1` [P-0068, 4-(3-(cyclobutylmethyl)-1-(3-fluoro-4-(methylsulfonyl)phenyl)-1H-pyrrolo[3,2-b]pyridin-6-yl)-3,5-dimethylisoxazole] it is 6.00 to 10.00.
Regarding `Cc1noc(C)c1-c1cnc2c(c1)c(C#CC(=O)O)cn2Cc1ccccc1` [P-0069, 3-(1-benzyl-5-(3,5-dimethylisoxazol-4-yl)-1H-pyrrolo[2,3-b]pyridin-3-yl)propiolic acid], the pIC50 is 6.00 to 10.00.
The figure for `Cc1noc(C)c1-c1cnc2c(c1)c(-c1ccc(C(=O)O)cc1OC(F)(F)F)cn2[C@@H](C)c1ccccn1` [P-0070, (S)-4-(5-(3,5-dimethylisoxazol-4-yl)-1-(1-(pyridin-2-yl)ethyl)-1H-pyrrolo[2,3-b]pyridin-3-yl)-3-(trifluoromethoxy)benzoic acid] is 6.00 to 10.00.
Consider `Cc1noc(C)c1-c1cnc2c(c1)c(-c1ccc(C(=O)O)cc1OC(F)F)cn2[C@@H](C)c1ccccn1` [P-0071, (S)-3-(difluoromethoxy)-4-(5-(3,5-dimethylisoxazol-4-yl)-1-(1-(pyridin-2-yl)ethyl)-1H-pyrrolo[2,3-b]pyridin-3-yl)benzoic acid], for which the pIC50 was 6.00 to 10.00.
The figure for `Cc1noc(C)c1-c1cnc2c(c1)c(-c1cccc(C(=O)O)c1)cn2C(C1CCC1)C1CCC1` [P-0072, 3-(1-(dicyclobutylmethyl)-5-(3,5-dimethylisoxazol-4-yl)-1H-pyrrolo[2,3-b]pyridin-3-yl)benzoic acid] is 6.00 to 10.00.
For `Cc1noc(C)c1-c1cnc2c(c1)c(-c1cccc(C(=O)O)c1)cn2C(c1ccccn1)C1CCC1` (stereo not drawn) [P-0073, 3-(1-(cyclobutyl(pyridin-2-yl)methyl)-5-(3,5-dimethylisoxazol-4-yl)-1H-pyrrolo[2,3-b]pyridin-3-yl)benzoic acid] the value was 6.00 to 10.00.
